Values quoted from earlier work, collected in PubChem BioAssay AID1259409 (Chemical Carcinogenesis Research Information System (CCRIS), 2018).
Several values for one entry are separate records, joined by “and”; a condition that tells them apart may be missing. Equal entries are not always repeated.

Test system: rodent chemically induced tumor inhibition, incidence and multiplicity
Experiment: CCRIS tumor inhibitor studies
Conditions: Dose [Inhibitor]: 0

Structure (SMILES) | tumour outcome (control, treated, inhibition, significance) (Carcinogen: N-METHYL-N'-NITRO-NITROSOGUANIDINE, 13830-58-5, 3.2 PPM IN FEED FOR 42 WK BEGINNING 1 MO POST CARCINOGEN TREATMENT (STUDY DURATION: 64 WK), Route [Inhibitor]: ORAL, Species: FISH, Strain/Sex: SHASTA RAINBOW TROUT/MALE,FEMALE, Target Tissue: Type of Lesion: KIDNEY: TUMOR, Dose [Carcinogen]: 35 PPM IN WATER FOR 30 MIN, Promoter: NONE) | tumour outcome (control, treated, inhibition, significance) (Carcinogen: N-METHYL-N'-NITRO-NITROSOGUANIDINE, 13830-58-5, 3.2 PPM IN FEED FOR 42 WK BEGINNING 1 MO POST CARCINOGEN TREATMENT (STUDY DURATION: 64 WK), Route [Inhibitor]: ORAL, Species: FISH, Strain/Sex: SHASTA RAINBOW TROUT/MALE,FEMALE, Target Tissue: Type of Lesion: LIVER: TUMOR, Dose [Carcinogen]: 35 PPM IN WATER FOR 30 MIN, Promoter: NONE) | tumour outcome (control, treated, inhibition, significance) (Carcinogen: N-METHYL-N'-NITRO-NITROSOGUANIDINE, 13830-58-5, 3.2 PPM IN FEED FOR 42 WK BEGINNING 1 MO POST CARCINOGEN TREATMENT (STUDY DURATION: 64 WK), Route [Inhibitor]: ORAL, Species: FISH, Strain/Sex: SHASTA RAINBOW TROUT/MALE,FEMALE, Target Tissue: Type of Lesion: STOMACH: TUMOR, Dose [Carcinogen]: 35 PPM IN WATER FOR 30 MIN, Promoter: NONE) | tumour outcome (control, treated, inhibition, significance) (Carcinogen: N-METHYL-N'-NITRO-NITROSOGUANIDINE, 13830-58-5, 3.2 PPM IN FEED FOR 42 WK BEGINNING 1 MO POST CARCINOGEN TREATMENT (STUDY DURATION: 64 WK), Route [Inhibitor]: ORAL, Species: FISH, Strain/Sex: SHASTA RAINBOW TROUT/MALE,FEMALE, Target Tissue: Type of Lesion: SWIM BLADDER: TUMOR, Dose [Carcinogen]: 35 PPM IN WATER FOR 30 MIN, Promoter: NONE) | tumour outcome (control, treated, inhibition, significance) (Carcinogen: N-METHYL-N'-NITRO-NITROSOGUANIDINE, 13830-58-5, 23 PPM IN FEED FOR 42 WK BEGINNING 1 MO POST CARCINOGEN TREATMENT (STUDY DURATION: 64 WK), Route [Inhibitor]: ORAL, Species: FISH, Strain/Sex: SHASTA RAINBOW TROUT/MALE,FEMALE, Target Tissue: Type of Lesion: KIDNEY: TUMOR, Dose [Carcinogen]: 35 PPM IN WATER FOR 30 MIN, Promoter: NONE) | tumour outcome (control, treated, inhibition, significance) (Carcinogen: N-METHYL-N'-NITRO-NITROSOGUANIDINE, 13830-58-5, 23 PPM IN FEED FOR 42 WK BEGINNING 1 MO POST CARCINOGEN TREATMENT (STUDY DURATION: 64 WK), Route [Inhibitor]: ORAL, Species: FISH, Strain/Sex: SHASTA RAINBOW TROUT/MALE,FEMALE, Target Tissue: Type of Lesion: STOMACH: TUMOR, Dose [Carcinogen]: 35 PPM IN WATER FOR 30 MIN, Promoter: NONE) | tumour outcome (control, treated, inhibition, significance) (Carcinogen: N-METHYL-N'-NITRO-NITROSOGUANIDINE, 13830-58-5, 104 PPM IN FEED FOR 42 WK BEGINNING 1 MO POST CARCINOGEN TREATMENT (STUDY DURATION: 64 WK), Route [Inhibitor]: ORAL, Species: FISH, Strain/Sex: SHASTA RAINBOW TROUT/MALE,FEMALE, Target Tissue: Type of Lesion: KIDNEY: TUMOR, Dose [Carcinogen]: 35 PPM IN WATER FOR 30 MIN, Promoter: NONE) | tumour outcome (control, treated, inhibition, significance) (Carcinogen: N-METHYL-N'-NITRO-NITROSOGUANIDINE, 13830-58-5, 104 PPM IN FEED FOR 42 WK BEGINNING 1 MO POST CARCINOGEN TREATMENT (STUDY DURATION: 64 WK), Route [Inhibitor]: ORAL, Species: FISH, Strain/Sex: SHASTA RAINBOW TROUT/MALE,FEMALE, Target Tissue: Type of Lesion: LIVER: TUMOR, Dose [Carcinogen]: 35 PPM IN WATER FOR 30 MIN, Promoter: NONE) | tumour outcome (control, treated, inhibition, significance) (Carcinogen: N-METHYL-N'-NITRO-NITROSOGUANIDINE, 13830-58-5, 104 PPM IN FEED FOR 42 WK BEGINNING 1 MO POST CARCINOGEN TREATMENT (STUDY DURATION: 64 WK), Route [Inhibitor]: ORAL, Species: FISH, Strain/Sex: SHASTA RAINBOW TROUT/MALE,FEMALE, Target Tissue: Type of Lesion: STOMACH: TUMOR, Dose [Carcinogen]: 35 PPM IN WATER FOR 30 MIN, Promoter: NONE) | tumour outcome (control, treated, inhibition, significance) (Carcinogen: 7,12-DIMETHYLBENZ[A]ANTHRACENE, 57-97-6, 12 NMOL PER REPEATED APPLICATION FOR 20 WK (STUDY DURATION: 20 WK), Route [Inhibitor]: DERMAL, Species: MOUSE, Strain/Sex: CD-1/FEMALE, Target Tissue: Type of Lesion: SKIN: TUMOR, Dose [Carcinogen]: 100 UG ONCE, Promoter: OKADAIC ACID, 78111-17-8)
CCCC[C@@H](C)[C@@H](OC(=O)C[C@@H](CC(=O)O)C(=O)O)[C@H](C[C@@H](C)C[C@H](O)CCCC[C@@H](O)C[C@H](O)[C@H](C)N)OC(=O)C[C@@H](CC(=O)O)C(=O)O | 19%, 14%, 26%, not significant | 45%, 25%, 44%, not significant | 32%, 40%, -25%, not significant | 54%, 44%, 18%, not significant | 19%, 13%, 32%, not significant | 32%, 31%, 3%, not significant | 19%, 6%, 68%, p<0.05 | 45%, 76%, -69%, p<0.05 | 32%, 12%, 62%, p<0.05 and 54%, 51%, 6%, not significant | 
CC(C)C1CCC(O)CC1 (stereo not given) |  |  |  |  |  |  |  |  |  | 87%, 50%, 43%, not calculated
